“And” between values parts separate entries of the source, which are not always exact repeats. Equal entries are not always repeated. Toxic doses and inconclusive results are not listed. The calls were made as follows: active = survival T/C of 150% or more; inactive = T/C below 125% in these data.
Test system: P388 leukemia ip, CD2F1 mice, survival T/C
Experiment: NCI In Vivo Anticancer Drug Screen. Data for tumor model P388 Leukemia (intraperitoneal) in CD2F1 (CDF1) mice
Details: endpoint: median survival time, higher = longer survival
Summary of the method: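 Mice carrying the transplanted tumor received test compound or vehicle. Survival was recorded in each group, and the value is the treated-group measurement divided by that of the vehicle-treated control group.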

[1] = dose: 100.0 mg/kg/injection, schedule: Q04DX003 (ip), vehicle: saline
[2] = dose: 200.0 mg/kg/injection, schedule: Q04DX003 (ip), vehicle: saline
[3] = dose: 50.0 mg/kg/injection, schedule: Q01DX009 (ip), vehicle: saline with Tween-80
[4] = dose: 100.0 mg/kg/injection, schedule: Q01DX009 (ip), vehicle: saline with Tween-80
[5] = dose: 200.0 mg/kg/injection, schedule: Q01DX009 (ip), vehicle: saline with Tween-80
[6] = dose: 60.0 mg/kg/injection, schedule: Q01DX005 (ip), vehicle: saline with Tween-80
[7] = dose: 120.0 mg/kg/injection, schedule: Q01DX005 (ip), vehicle: saline with Tween-80
[8] = dose: 100.0 mg/kg/injection, schedule: Q04DX002 (ip), vehicle: Klucel (hydroxypropylcellulose) (HPC)
[9] = dose: 50.0 mg/kg/injection, schedule: Q01DX005 (ip), vehicle: Klucel (hydroxypropylcellulose) (HPC)
[10] = dose: 100.0 mg/kg/injection, schedule: Q01DX005 (ip), vehicle: Klucel (hydroxypropylcellulose) (HPC)
[11] = dose: 200.0 mg/kg/injection, schedule: Q01DX005 (ip), vehicle: Klucel (hydroxypropylcellulose) (HPC)
[12] = dose: 25.0 mg/kg/injection, schedule: Q01DX009 (ip), vehicle: saline with Tween-80
[13] = dose: 50.0 mg/kg/injection, schedule: Q01DX005 (ip), vehicle: saline with Tween-80
[14] = dose: 100.0 mg/kg/injection, schedule: Q01DX005 (ip), vehicle: saline with Tween-80
[15] = dose: 12.5 mg/kg/injection, schedule: Q01DX009 (ip), vehicle: saline with Tween-80
[16] = dose: 50.0 mg/kg/injection, schedule: Q01DX009 (ip), vehicle: saline
[17] = dose: 100.0 mg/kg/injection, schedule: Q01DX009 (ip), vehicle: saline
[18] = dose: 200.0 mg/kg/injection, schedule: Q01DX009 (ip), vehicle: saline
[19] = dose: 240.0 mg/kg/injection, schedule: Q01DX005 (ip), vehicle: saline with Tween-80

Measured: T/C

COc1ccc(C2=NN(C(C)=O)C(c3cc(OC)c(OC)cc3N)S2)cc1OC (stereo not given) (tested in a mixture with another compound)
inactive: dose: 7.5 mg/kg/injection, schedule: Q01DX005 (ip), vehicle: saline with Tween-80 97 % of control | dose: 15.0 mg/kg/injection, schedule: Q01DX005 (ip), vehicle: saline with Tween-80 92 % of control | dose: 30.0 mg/kg/injection, schedule: Q01DX005 (ip), vehicle: saline with Tween-80 90 % of control

O=C(O)C1CSC2(CCCC2)N1 (stereo not given)
inactive: [1] 101 % of control | [2] 98 % of control | dose: 400.0 mg/kg/injection, schedule: Q04DX003 (ip), vehicle: saline 98 % of control

C1=CCOCOC1
inactive: [3] 102 % of control and 109 % of control (2×) | [4] 104 % of control and 109 % of control and 116 % of control | [5] 111 % of control

C=CC(C)(C)c1c(OC)oc(-c2ccccc2)cc1=O
inactive: dose: 5.0 mg/kg/injection, schedule: Q01DX005 (ip), vehicle: saline + Tween-80 + alcohol 106 % of control | dose: 10.0 mg/kg/injection, schedule: Q01DX005 (ip), vehicle: saline + Tween-80 + alcohol 111 % of control | dose: 20.0 mg/kg/injection, schedule: Q01DX005 (ip), vehicle: saline + Tween-80 + alcohol 106 % of control | dose: 40.0 mg/kg/injection, schedule: Q01DX005 (ip), vehicle: saline + Tween-80 + alcohol 110 % of control

CCCCN1C(=O)C(=O)N(CCc2ccc(OC)c(OC)c2)C1=O
inactive: dose: 50.0 mg/kg/injection, schedule: Q01DX009 (ip), vehicle: Klucel (hydroxypropylcellulose) (HPC) 91 % of control | dose: 100.0 mg/kg/injection, schedule: Q01DX009 (ip), vehicle: Klucel (hydroxypropylcellulose) (HPC) 86 % of control | dose: 200.0 mg/kg/injection, schedule: Q01DX009 (ip), vehicle: Klucel (hydroxypropylcellulose) (HPC) 91 % of control

Cc1ccccc1CS
inactive: [3] 113 % of control | [4] 113 % of control | [5] 113 % of control

O=C(CN(O)C(=O)c1ccccc1)OCc1ccccc1
inactive: dose: 12.5 mg/kg/injection, schedule: Q01DX009 (ip), vehicle: distilled water + Tween-80 97 % of control | dose: 25.0 mg/kg/injection, schedule: Q01DX009 (ip), vehicle: distilled water + Tween-80 99 % of control | dose: 50.0 mg/kg/injection, schedule: Q01DX009 (ip), vehicle: distilled water + Tween-80 99 % of control | dose: 100.0 mg/kg/injection, schedule: Q01DX009 (ip), vehicle: distilled water + Tween-80 101 % of control | dose: 200.0 mg/kg/injection, schedule: Q01DX009 (ip), vehicle: distilled water + Tween-80 101 % of control

O=C1OCC/C1=C/O/C=C1\CCOC1=O
inactive: [6] 106 % of control | [7] 119 % of control

C=C(C)C(=O)OC1C/C(CO)=C\C(OC(C)=O)C/C(C)=C/C2OC(=O)C(=C)C21 (stereo not given)
inactive: dose: 3.75 mg/kg/injection, schedule: Q01DX009 (ip), vehicle: saline + alcohol 113 % of control | dose: 7.5 mg/kg/injection, schedule: Q01DX009 (ip), vehicle: saline + alcohol 115 % of control | dose: 15.0 mg/kg/injection, schedule: Q01DX009 (ip), vehicle: saline + alcohol 120 % of control

Nc1nc(Sc2ccc([N+](=O)[O-])c3nonc23)c2[nH]cnc2n1
inactive: dose: 12.5 mg/kg/injection, schedule: Q01DX009 (ip), vehicle: Klucel (hydroxypropylcellulose) (HPC) 115 % of control | dose: 25.0 mg/kg/injection, schedule: Q01DX009 (ip), vehicle: Klucel (hydroxypropylcellulose) (HPC) 88 % of control

COC(=O)c1cc(=O)n(-c2ccccc2)c(SC)n1
inactive: dose: 6.25 mg/kg/injection, schedule: Q04DX002 (ip), vehicle: Klucel (hydroxypropylcellulose) (HPC) 106 % of control | dose: 12.5 mg/kg/injection, schedule: Q04DX002 (ip), vehicle: Klucel (hydroxypropylcellulose) (HPC) 96 % of control | dose: 25.0 mg/kg/injection, schedule: Q04DX002 (ip), vehicle: Klucel (hydroxypropylcellulose) (HPC) 98 % of control | dose: 50.0 mg/kg/injection, schedule: Q04DX002 (ip), vehicle: Klucel (hydroxypropylcellulose) (HPC) 104 % of control | [8] 100 % of control and 98 % of control

COC(=O)C1=C(C(=O)OC)P2(C)(C)ON=C(c3c(C)cc(C)cc3C)N2C1(c1ccccc1)c1ccccc1
inactive: [9] 100 % of control and 95 % of control | [10] 93 % of control | [11] 91 % of control and 94 % of control

COCCCOC(=O)NCCCCC(N)C(=O)O (stereo not given)
inactive: dose: 50.0 mg/kg/injection, schedule: Q01DX005 (ip), vehicle: saline 98 % of control | dose: 100.0 mg/kg/injection, schedule: Q01DX005 (ip), vehicle: saline 106 % of control | dose: 200.0 mg/kg/injection, schedule: Q01DX005 (ip), vehicle: saline 100 % of control

Nc1cc(NC=O)ncn1
inactive: [12] 102 % of control | [3] 105 % of control | [4] 102 % of control

C=CCn1cc2c3c(cccc31)C1CC(C)CN(C)C1C2 (stereo not given)
inactive: [13] 99 % of control | [14] 111 % of control

C[n+]1cccc2ccccc21
inactive: [1] 109 % of control

COC(=O)C1=C(N)SS/C1=C/[N+](=O)[O-]
inactive: [9] 106 % of control | [10] 103 % of control | [11] 101 % of control

c1cc(OCC2CO2)ccc1OCC1CO1 (stereo not given)
inactive: [15] 95 % of control | [12] 96 % of control | [3] 113 % of control | [4] 108 % of control and 111 % of control | dose: 100.0 mg/kg/injection, schedule: Q04DX003 (ip), vehicle: saline sonified 100 % of control | [5] 108 % of control | dose: 200.0 mg/kg/injection, schedule: Q04DX003 (ip), vehicle: saline sonified 104 % of control | dose: 264.0 mg/kg/injection, schedule: Q04DX003 (ip), vehicle: saline with Tween-80 118 % of control | dose: 400.0 mg/kg/injection, schedule: Q01DX009 (ip), vehicle: saline with Tween-80 112 % of control | dose: 600.0 mg/kg/injection, schedule: Q04DX003 (ip), vehicle: saline with Tween-80 113 % of control

C[n+]1ccc(CCNC2CCC(N=NC3CCC([N+](=O)[O-])CC3)CC2)cc1 (stereo not given)
inactive: [16] 105 % of control and 92 % of control | [17] 108 % of control | [18] 102 % of control and 118 % of control

CCCCCOc1ccc(C(=O)Oc2ccc(N=Nc3nccs3)cc2)cc1
inactive: [13] 98 % of control | [14] 101 % of control | dose: 200.0 mg/kg/injection, schedule: Q01DX005 (ip), vehicle: saline with Tween-80 96 % of control

Clc1cc(-c2csc(Cl)c2)cs1
inactive: [12] 97 % of control | [3] 103 % of control and 97 % of control | [4] 109 % of control | [5] 96 % of control

O=C(S)CC(O)(CCl)c1ccc(-c2ccccc2)cc1 (stereo not given)
inactive: [8] 113 % of control | dose: 200.0 mg/kg/injection, schedule: Q04DX002 (ip), vehicle: Klucel (hydroxypropylcellulose) (HPC) 101 % of control

CC([OH2+])CNCCN.CC([OH2+])CNCCN.O=[N+]([O-])[O-].[Cu+2] (stereo not given)
inactive: [16] 113 % of control

Cc1ncc2c(n1)-c1ccccc1OC2O (stereo not given)
inactive: [16] 103 % of control | [17] 91 % of control | [18] 100 % of control

Cc1ccc2sc3c(ccc(=O)n3C)c(=O)c2c1
inactive: dose: 100.0 mg/kg/injection, schedule: Q04DX002 (ip), vehicle: saline with Tween-80 115 % of control | dose: 200.0 mg/kg/injection, schedule: Q04DX002 (ip), vehicle: saline with Tween-80 120 % of control

CN1CCC/C1=C/C(=O)c1ccccc1
inactive: [1] 100 % of control | [2] 111 % of control

COc1cc(NC(C)CCCN)c2ncccc2c1Oc1ccc(Cl)cc1 (stereo not given)
inactive: [15] 91 % of control | [12] 90 % of control | [3] 94 % of control

CC1Cn2c(nnc2-c2ccccc2O)S1 (stereo not given)
inactive: [6] 96 % of control | [7] 100 % of control | [19] 101 % of control

O=C(CC1(Cl)C(F)(F)C(F)(F)C1(F)F)c1ccccc1
inactive: dose: 6.25 mg/kg/injection, schedule: Q04DX003 (ip), vehicle: saline 100 % of control | dose: 12.5 mg/kg/injection, schedule: Q04DX003 (ip), vehicle: saline 100 % of control | dose: 25.0 mg/kg/injection, schedule: Q04DX003 (ip), vehicle: saline 100 % of control

COC(=O)C(=O)C(C)C(=O)C(C)c1nc(NC(=O)Nc2ccc(Cl)cc2)n[nH]1 (stereo not given)
inactive: [6] 101 % of control | [7] 101 % of control | [19] 100 % of control

CNC(=O)O/N=C/c1ccccc1-c1ccccc1
inactive: [3] 97 % of control | [4] 86 % of control

Reference: PubChem BioAssay AID330 (DTP/NCI, 2004)
